Experimental data from patent publication US20100004244A1, “USE OF CB2 RECEPTOR AGONISTS FOR PROMOTING NEUROGENESIS” (priority 2006, published 2010).

Columns and labels:
[1] = tested on: embryonic hippocampal neural progenitor cells; conditions: Jiang et al. 2005; cited from earlier work
newborn neurons = conditions: chronic administration, Jiang et al. 2005; cited from earlier work
cannabinoid receptors = conditions: cited from earlier work
neural progenitors [2] = assay: BrdU cell proliferation assay in dissociated neurospheres; assay type: cell-based, mouse; conditions: for effect on HU-308 induction of cell proliferation: PD98059 10 μM, LY294,002 5 μM, with HU-308 30 nM, FIG. 3E, confirmed in neurosphere generation assays; for number of BrdU-incorporating cells: 30 nM, 16 hours, FIG. 3D
Description: These studies involve the use of bromodeoxyuridine (BrdU), a thymidine analog incorporated into DNA during the S phase of the cell cycle, which allows visualizing cell proliferation. Neural progenitor proliferation was determined by quantifying BrdU-positive cells 16 hours after incubation with 10 μg/ml BrdU, followed by immunostaining [Aguado, T. et al., FASEB J. 19, 1704-6, 2005].
Results are expressed as percentage of BrdU-positive cells over total cells.

neural progenitors [3] = assay: Neurosphere generation and self-renewal of neural progenitors; assay type: cell-based, mouse; conditions: for neurosphere generation in CB2-deficient neural progenitors / primary neurosphere generation / neural progenitor self-renewal: 30 nM; for primary neurosphere generation: wild-type E17.5 progenitors, 7 days; for neural progenitor self-renewal: wild-type progenitors, 5 consecutive passages, FIG. 3C
Description: Multipotent self-renewing progenitors were obtained from the dissected cortices of mice at the indicated developmental stages and grown in chemically-defined medium constituted by Dulbecco's modified Eagle's and F12 media supplemented with N2 (Invitrogen), 0.6% glucose, non-essential amino acids, 50 mM Hepes, 2 μg/ml heparin, 20 ng/ml epidermal growth factor and 20 ng/ml basic fibroblast growth factor [Aguado, T. et al., J. Neurosci. 26, 1551-61, 2006]. Clonal neurospheres were cultured at 1000 cells/ml, dissociated with accutase (Sigma-Aldrich, Missouri, USA) and experiments were carried out with early (up to 10) passage neurospheres. Neurosphere generation experiments were performed in 96-well dishes with 100 μl of medium, and the number of neurospheres was quantified at predetermined time points by phase-contrast microscopy. Embryonic neural progenitors from wild-type and CB2-deficient mice were cultured (10,000 cells/ml) in the continuous presence of cannabinoids or controls for the indicated number of passages (one passage every 4 days).
Adult neural progenitors were obtained from hippocampi of 4-month-old adult mice and cultured as described above. Neural progenitor cell differentiation was performed as described.

ERK and Akt = ERK and Akt phosphorylation in neural progenitors (Western blot); assay type: cell-based, mouse; conditions: FIG. 3F
Description: Identical protein amounts of cleared cell extracts were subjected to SDS-PAGE, transferred to PVDF membranes, and following antibody incubations developed with enhanced chemiluminiscence detection kit [Aguado, T. et al., FASEB J. 19, 1704-6, 2005]. Loading controls were performed with an anti-α-tubulin antibody.

[4] = tested on: neural progenitor cell proliferation in the dentate gyrus; assay: In vivo hippocampal neural progenitor proliferation (BrdU-positive cells in dentate gyrus); design: species or system mouse; conditions: FIG. 4B; for hippocampal progenitor proliferation in vivo: wild-type adult mice, i.p. 5 consecutive days, HU-308 15 mg/kg, SR144528 1 mg/kg
Description: Adult CB2 receptor knock-out male mice (8-week old) and their respective wild-type littermates were injected i.p. with 50 mg/kg BrdU daily for 3 days, and perfused 1 day later. […] Control animals received the corresponding vehicle injection (100 μl PBS supplemented with 0.5 mg defatted bovine serum albumin and 4% dimethylsulfoxide). BrdU was administered daily during the pharmacological administration period. In the case of experiments on kainate-induced excitotoxicity, animals were injected with 15 mg/kg kainate or vehicle. E17.5 mouse embryos from mothers injected twice with 100 mg/kg BrdU (30-min interval between injections) were obtained 1 h after the first injection.
At the end of the study, animals were euthanized and their brains were fixed into 4% paraformaldehyde in PBS until further analysis.
Mice were perfused and immunostaining was performed in 30-μm brain coronal free-floating sections [Rueda, D. et al., J. Biol. Chem. 277, 4645-50, 2002]. Sections were incubated with polyclonal anti-CB2 antibody together with anti-nestin, anti-Neu, or anti-GFAP antibodies followed by secondary staining for rabbit and mouse IgGs with highly cross-adsorbed AlexaFluor 594 and AlexaFluor 488 secondary antibodies (Molecular Probes), respectively. Neural progenitor proliferation was determined with anti-BrdU antibody and secondary anti-rat IgG-AlexaFluor 594 in sections counterstained with TOTO-3 iodide. Preparations were examined using Leica software and SP2 AOBS microscope with 2 passes with a Kalman filter and a 1024×1024 collection box. BrdU^+ cells were counted in the subgranular zone and granule cell layer of the dentate gyrus. A 1-in-6 series of adult hippocampal mouse sections located between 1.3 and 2.1 mm posterior to bregma were employed. […] Frozen mouse embryo sections were incubated with anti-BrdU antibody together with Yoyo-1 iodide, and positive cells were determined in 7 sections per animal.
Results are expressed as number of BrdU positive cells per section in the dentate gyrus of the animals.

human CB1 receptors = human CB1 receptors (Homo sapiens, UniProt P21554); conditions: read-out: IC50 for binding to human CB1 receptors; as disclosed in WO 03/064359; cited from earlier work
Sequence of human CB1 receptors (P21554 whole entry): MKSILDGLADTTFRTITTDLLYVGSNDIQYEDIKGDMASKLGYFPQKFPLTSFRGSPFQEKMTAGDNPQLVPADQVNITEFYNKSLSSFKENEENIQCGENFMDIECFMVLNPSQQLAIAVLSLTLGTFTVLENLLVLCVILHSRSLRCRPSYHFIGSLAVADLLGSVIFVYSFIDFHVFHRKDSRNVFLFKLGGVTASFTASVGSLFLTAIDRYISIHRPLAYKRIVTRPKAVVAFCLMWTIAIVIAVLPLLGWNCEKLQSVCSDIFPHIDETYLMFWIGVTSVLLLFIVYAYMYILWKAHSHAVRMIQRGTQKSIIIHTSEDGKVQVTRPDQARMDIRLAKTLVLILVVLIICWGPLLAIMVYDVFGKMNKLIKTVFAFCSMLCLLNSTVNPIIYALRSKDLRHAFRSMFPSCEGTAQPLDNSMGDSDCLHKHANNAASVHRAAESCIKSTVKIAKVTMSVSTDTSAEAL

substantia nigra = conditions: mice treated with the neurotoxin MPTP; cited from earlier work
basal ganglia = conditions: cited from earlier work

CCCCCCC(C)(C)c1cc(O)c2c(c1)OC(C)(C)[C@@H]1CC=C(CO)C[C@@H]21 [HU-210, 7-hydroxy-Δ^6-tetrahydrocannabinol-1,1-dimethyl-heptyl]
proliferation and differentiation of embryonic hippocampal neural progenitor cells [1]: promotes proliferation of said embryonic cells without affecting their differentiation
measures of anxiety- and depression-like behavior (newborn neurons): reduced measures of anxiety- and depression-like behavior
number of newborn neurons (newborn neurons): increased the number of newborn neurons

CCCCCCC(C)(C)c1cc(O)c2c(c1)OC(C)(C)[C@@H]1CC=C(CO)C[C@@H]21 [HU-211, 7-hydroxy-Δ^6-tetrahydrocannabinol-1,1-dimethyl-heptyl]
affinity to the cannabinoid receptors (cannabinoid receptors): low affinity

O=c1cc(N2CCOCC2)oc2c(-c3ccccc3)cccc12 [LY294,002]
effect on HU-308 induction of cell proliferation (neural progenitors [2]): prevented by both inhibitors

COc1cccc(-c2cc(=O)c3ccccc3o2)c1N [PD98059]
effect on HU-308 induction of cell proliferation (neural progenitors [2]): prevented by both inhibitors

SR144528
effect on agonist-increased primary neurosphere generation and self-renewal (neural progenitors [3]; 2 μM with HU-308 or JWH-133 30 nM, FIG. 3B, 3C): both actions were prevented
effect on agonist-increased neurosphere generation in postnatal and adult progenitors (neural progenitors [3]; data not shown): this action was prevented
effect on HU-308 stimulation of ERK and Akt (ERK and Akt): this action was prevented
hippocampal progenitor proliferation in vivo [4]: exerted the opposite action

CCCC(C)(C)c1ccc2c(c1)OC(C)(C)[C@@H]1CC=C(C)C[C@@H]21 [JWH-133]
neurosphere generation in CB2-deficient neural progenitors (neural progenitors [3]; FIG. 3B): neither HU-308 nor JWH-133 was able to enhance neurosphere generation
percentage of neurosphere number relative to vehicle incubations (neural progenitors [3]; adult progenitors): 149±6%
percentage of neurosphere number relative to vehicle incubations (neural progenitors [3]; postnatal progenitors): 154±22%
primary neurosphere generation (neural progenitors [3]; FIG. 3B): increased
neural progenitor self-renewal (neural progenitors [3]): increased
number of BrdU-incorporating cells (neural progenitors [2]): increased the number of BrdU-incorporating cells in a CB2-dependent manner

CCCCCCC(C)(C)c1cc(OC)c(C2C=C(CO)C3CC2C3(C)C)c(OC)c1 (single isomer, unassigned; (+)) [HU-308, (+) {4-[4-(1,1-dimethylheptyl)-2,6-dimethoxyphenyl]-6,6-dimethyl-bicyclo[3.1.1]hept-2-en-2-yl}-methanol]
neurosphere generation in CB2-deficient neural progenitors (neural progenitors [3]; FIG. 3B): neither HU-308 nor JWH-133 was able to enhance neurosphere generation
primary neurosphere generation (neural progenitors [3]; FIG. 3B): increased
neural progenitor self-renewal (neural progenitors [3]): increased
number of BrdU-incorporating cells (neural progenitors [2]): increased the number of BrdU-incorporating cells in a CB2-dependent manner
ERK and Akt phosphorylation (ERK and Akt; 15 min (ERK) or 2 min (Akt)): stimulated ERK and Akt
hippocampal progenitor proliferation in CB2-deficient mice ([4]; CB2-/- adult mice, 15 mg/kg i.p. 5 days): lack of HU-308 agonistic effect
hippocampal progenitor proliferation in vivo [4]: increased progenitor proliferation
IC50 (human CB1 receptors): 3.6 µM
extent of cell death in the substantia nigra (substantia nigra): reduces the extent of cell death
GABA level and dopamine transmission in the non-lesioned side (basal ganglia; non-lesioned side): did not alter the parameters monitored
extent of cell death in the basal ganglia (basal ganglia; rats, intrastriatal injection of malonate): reduces the extent of cell death
